# Source: US8808879B2, “Phototherapy devices and methods comprising substituted carbazole compounds” (Nitto Denko Corporation, priority 2010, dated 2014)
# Columns and labels:
# actinic keratoses = test: Photodynamic treatment of actinic keratoses lesions with topical photosensitiser pro-drug and red OLED; conditions: 20% topical solution, illuminated with red OLED about 14-18 hours after application
# [1] = system: CHO-K1 (Chinese Hamster Ovarian Cancer, ATCC, CRL-2243) cell line; test: Ex-vivo photodynamic efficacy study of ALA with red OLED light (microscopy, PpIX fluorescence, MTT cell viability)
# pathological myopia = test: Verteporphin photodynamic therapy of pathological myopia with red OLED; assay type: in vivo, person; conditions: about 6 mg/m^2 intravenously, retina illuminated with red OLED about 15 minutes after start of infusion
# [2] = system: presumed ocular histoplasmosis; design: species or system person; conditions: in vivo, iv
# [3] = system: age-related macular degeneration; test: Verteporphin photodynamic therapy of age-related macular degeneration with red OLED; assay type: in vivo, person; conditions: about 6 mg/m^2 intravenously, retina illuminated with red OLED about 15 minutes after start of infusion
compound,measurement,setting,value
Cl.NCC(=O)CCC(=O)O [5-Aminolevulinic acid HCl],number or severity of the lesions after the treatment,actinic keratoses,reduced
"NCC(=O)CCC(=O)O [ALA, 5-aminolevulinic acid]",cytotoxicity at 1000 µM,"[1]; Cricetulus griseus, CHO-K1, light or radiation study, read-out: cell destroyed compared with reference (MTT cell viability)",~90%
same,cell morphology under optical microscope after light irradiation,"[1]; after 25 J/cm^2 red light irradiation, leafy type cells transform to droplet type (FIG. 9)",significant and irreversible cell death
same,concentration of ALA required,[1]; at the light dose of 27 J/cm^2,at least 1 mM
C=Cc1c(C)c2cc3nc(cc4[nH]c(cc5nc(cc1[nH]2)C(C)=C5CCC(=O)O)c(CCC(=O)OC)c4C)[C@@]1(C)C3=CC=C(C(=O)OC)[C@H]1C(=O)OC [Verteporphin],patient's vision after treatment,pathological myopia,stabilized
same,patient's vision after treatment,[2],stabilized
same,patient's vision after treatment,[3],stabilized
